Assay results: US11358973B2, “Di(hetero)aryl macrocyclic compound for inhibiting protein kinase activity” (Shenzhen TargetRx, Inc., priority 2018, dated 2022)
Where two headings read alike, the source gives them in different places.

Tests used:
[1] = Pharmacokinetic experiment in rats; type: in vivo, Sprague-Dawley rats; design: Cl_pred (L/kg): unit not given here; conditions: rat; for AUC(0-inf): read-out: AUCINF_pred; for MRT inf: read-out: MRTINF_pred
Method: 6 male Sprague-Dawley rats (7-8 weeks old, and weighing approximately 210 g) were divided into 2 groups with 3 rats in each group. The rats were intravenously or orally administered a single dose of compounds (3 mg/kg intravenously, 10 mg/kg orally) to compare pharmacokinetic differences.
The rats were feeded on standard food and water. Fasting was started 16 hours before the test. The drug was dissolved in PEG400 and dimethyl sulfoxide. The blood samples were collected from eyelids at the time points of 0.083 hour, 0.25 hour, 0.5 hour, 1 hour, 2 hours, 4 hours, 6 hours, 8 hours, 12 hours, and 24 hours after administration.
Rats were briefly anesthetized after inhalation of diethyl ether and 300 μL of blood sample was collected from the eyelids into test tubes. There was 30 μL of 1% heparin salt solution in the test tube. Tubes were dried at 60° C. overnight before use. After the blood sample was collected at the last time point, the rats were sacrificed after ether anesthesia.
Immediately after the collection of the blood sample, the test tube was gently inverted at least 5 times to ensure sufficient mixing and then placed on ice. The blood sample was centrifuged at 5000 rpm at 4° C. for 5 minutes to separate the plasma from the red blood cells. 100 μL of plasma was aspirated into a clean plastic centrifuge tube with a pipette, marking with the name of the compound and time point. Plasma was stored at −80° C. prior to analysis. The concentration of the compound of the present disclosure in plasma was determined by LC-MS/MS. The pharmacokinetic parameters were calculated based on the blood concentration of the drug for each animal at different time points.

[2] = target: TRKC kinase (Homo sapiens, UniProt Q16288); assay: Biochemical kinase analysis (HTRF), TRKC; conditions: 23° C., read-out: Kinase IC50 (nM) TRK C
Method: (§1) Inhibition of TRKA, TRKB, TRKC kinases can be measured by HTRF ([…]) method. The reaction was performed in a 384-well plate at 23° C. with a volume of 20 μL. TRKA TRKB or TRKC kinase were mixed with pre-formulated and diluted compounds of different concentrations for ten minutes in duplicate for each concentration, wherein 11 concentrations made with a 3-fold gradient dilution from the starting concentration of 300 nM were made and the final concentration of DMSO was 2%. The corresponding substrate and ATP were added thereto, and reacted at room temperature for 20 minutes (both a negative and a positive control were set: negative control is blank control, positive control is Entrectinib). After the reaction, detection reagent was added thereto (reagent in HTRF Kinase TK kit), and after incubation at room temperature for 30 minutes, detection was carried out by PerkinElmer Envision microplate reader for determining enzyme activity in the presence of the compounds of the present disclosure at various concentrations, and the inhibitory activity of different concentrations of compounds against enzyme activity was calculated. After that, in accordance with four-factors function and Graphpad 5.0 software, inhibitory activity on enzyme activity under different concentrations of compounds was fitted and IC50 values were calculated.

[3] = target: TRKA kinase (Homo sapiens, UniProt P04629); assay: Biochemical kinase analysis (HTRF), TRKA; conditions: 23° C., read-out: Kinase IC50 (nM) TRK A
Method: as §1

[4] = target: TRKB kinase (Homo sapiens, UniProt Q16620); assay: Biochemical kinase analysis (HTRF), TRKB; conditions: 23° C., read-out: Kinase IC50 (nM) TRK B
Method: as §1

[5] = tested on: KM12 cell line; assay: KM12 cell proliferation analysis (CellTiter-Glo); type: cell-based; conditions: Homo sapiens, 72 h
Method: The CGT method was used to detect the in vitro anti-proliferative activity of the compounds of the present disclosure on tumor cells cultured in vitro. The KM12 cell line was maintained in RPMI-1640 medium containing 10% fetal bovine serum and antibiotics, the cells in the logarithmic growth phase were harvested and planted in a 96-well plate. The plate was incubated in an incubator at 37° C., containing 5% carbon dioxide gas overnight. After the test compounds were dissolved in DMSO, a 3-fold concentration gradient dilution with 9 compound concentrations was made. Pre-prepared compounds of different concentrations were transferred to the cell plate in triplicate for each concentration, and continue culturing for 72 h. The final concentration of DMSO in the system was 0.1%, and the initial concentration of the test compound was 300 nM.
CellTiter-Glo reagent was added to the cell plate, and incubated at room temperature for 30 minutes to stabilize the optical signal. Detection was carried out by PerkinElmer Envision microplate reader for determining the inhibitory activity of the compound of the present disclosure at various concentrations on cell proliferation. The inhibitory activity of compounds at different concentrations on cell proliferation was fitted according to Graphpad 5.0 software, and IC50 values were calculated.

[6] = male, Sprague-Dawley, plasma, IV 3 mg/kg
[7] = male, Sprague-Dawley, plasma, PO 10 mg/kg

Chain of TRKC kinase (Q16288 32-839): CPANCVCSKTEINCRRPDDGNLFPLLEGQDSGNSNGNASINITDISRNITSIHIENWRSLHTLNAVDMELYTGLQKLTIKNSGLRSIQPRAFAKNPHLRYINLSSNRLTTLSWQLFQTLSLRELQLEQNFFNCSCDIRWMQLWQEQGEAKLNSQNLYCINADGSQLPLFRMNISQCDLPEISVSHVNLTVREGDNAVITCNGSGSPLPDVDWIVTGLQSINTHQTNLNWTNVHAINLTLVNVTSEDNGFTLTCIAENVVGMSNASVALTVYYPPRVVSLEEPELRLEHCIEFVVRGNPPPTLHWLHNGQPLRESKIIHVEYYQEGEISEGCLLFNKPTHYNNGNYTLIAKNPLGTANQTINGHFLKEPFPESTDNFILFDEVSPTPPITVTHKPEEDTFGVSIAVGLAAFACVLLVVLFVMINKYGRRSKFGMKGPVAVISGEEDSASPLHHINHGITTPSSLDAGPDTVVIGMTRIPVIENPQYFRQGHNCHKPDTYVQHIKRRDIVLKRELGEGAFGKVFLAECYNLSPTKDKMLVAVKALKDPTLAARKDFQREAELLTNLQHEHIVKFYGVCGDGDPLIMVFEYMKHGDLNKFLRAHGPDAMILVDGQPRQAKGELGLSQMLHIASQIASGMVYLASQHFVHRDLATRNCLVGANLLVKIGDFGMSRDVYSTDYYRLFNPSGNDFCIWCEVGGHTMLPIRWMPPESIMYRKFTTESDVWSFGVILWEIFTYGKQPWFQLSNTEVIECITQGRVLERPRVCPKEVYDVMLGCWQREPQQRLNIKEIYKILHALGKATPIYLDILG
Chain of TRKA kinase (P04629 33-796): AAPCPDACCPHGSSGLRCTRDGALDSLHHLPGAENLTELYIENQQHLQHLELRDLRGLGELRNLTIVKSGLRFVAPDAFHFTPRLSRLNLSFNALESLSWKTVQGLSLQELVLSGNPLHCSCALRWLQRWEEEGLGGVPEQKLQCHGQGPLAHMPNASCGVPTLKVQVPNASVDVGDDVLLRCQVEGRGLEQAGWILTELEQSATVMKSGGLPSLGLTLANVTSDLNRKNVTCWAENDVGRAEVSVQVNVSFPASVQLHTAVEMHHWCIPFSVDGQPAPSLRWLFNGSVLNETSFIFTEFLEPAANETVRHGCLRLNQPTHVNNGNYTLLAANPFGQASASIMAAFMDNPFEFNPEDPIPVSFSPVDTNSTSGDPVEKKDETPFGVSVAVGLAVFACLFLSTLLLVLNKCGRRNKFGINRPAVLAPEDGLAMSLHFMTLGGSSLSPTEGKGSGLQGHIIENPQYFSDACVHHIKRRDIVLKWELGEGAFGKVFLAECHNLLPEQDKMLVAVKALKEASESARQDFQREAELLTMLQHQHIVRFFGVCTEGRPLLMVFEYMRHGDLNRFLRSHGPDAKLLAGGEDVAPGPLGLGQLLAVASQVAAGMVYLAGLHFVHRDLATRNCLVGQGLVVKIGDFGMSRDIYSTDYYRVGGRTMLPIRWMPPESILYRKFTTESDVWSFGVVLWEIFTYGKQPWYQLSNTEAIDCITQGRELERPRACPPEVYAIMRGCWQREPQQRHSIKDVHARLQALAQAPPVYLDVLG
Chain of TRKB kinase (Q16620 32-822): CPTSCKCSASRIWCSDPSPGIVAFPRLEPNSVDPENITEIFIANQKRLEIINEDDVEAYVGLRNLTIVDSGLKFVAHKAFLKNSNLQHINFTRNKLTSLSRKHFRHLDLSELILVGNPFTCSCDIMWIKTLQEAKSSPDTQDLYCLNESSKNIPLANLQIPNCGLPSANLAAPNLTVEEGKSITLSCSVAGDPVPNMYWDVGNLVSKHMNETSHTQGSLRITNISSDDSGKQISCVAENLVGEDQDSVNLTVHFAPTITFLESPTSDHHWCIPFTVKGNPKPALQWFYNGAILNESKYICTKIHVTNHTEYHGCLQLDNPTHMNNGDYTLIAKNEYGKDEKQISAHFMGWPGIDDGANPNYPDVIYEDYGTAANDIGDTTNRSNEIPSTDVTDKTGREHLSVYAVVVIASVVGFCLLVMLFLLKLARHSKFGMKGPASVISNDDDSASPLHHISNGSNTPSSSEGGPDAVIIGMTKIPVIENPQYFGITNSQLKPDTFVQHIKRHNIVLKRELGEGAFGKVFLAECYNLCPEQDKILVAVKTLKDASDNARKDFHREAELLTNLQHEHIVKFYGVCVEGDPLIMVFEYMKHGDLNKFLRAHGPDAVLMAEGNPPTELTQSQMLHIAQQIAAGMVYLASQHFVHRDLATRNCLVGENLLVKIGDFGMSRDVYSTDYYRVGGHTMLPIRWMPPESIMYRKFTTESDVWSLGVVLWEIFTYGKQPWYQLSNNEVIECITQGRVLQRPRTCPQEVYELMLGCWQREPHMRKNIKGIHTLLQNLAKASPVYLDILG

In the case of `C[C@H]1Nc2ccn3ncc(c3n2)NC(=O)CCOc2ccc(F)cc21` [Compound T-1, (13R)-11-fluoro-13-methyl-6,7,13,14-tetrahydro-1,15-ethenopyrazolo[4,3-f][1,4,8,10]benzoxatriazacyclotridecin-5(6H)-one], the AUC(0-t) [1, 6] is reported as 6240 ng·h/mL, the Cmax [1, 6] is reported as 2120 ng/mL and the Tmax [1, 6] is reported as 0.08 h. It also gave a half-life [1, 6] of 9.05 h, an AUC(0-inf) [1, 6] of 6350 ng·h/mL and an MRT inf [1, 6] of 4.04 h. For the same compound, the AUC(0-t) [1, 7] was 11500 ng·h/mL, the Cmax [1, 7] was 1860 ng/mL and the Tmax [1, 7] was 1.67 h. For the same compound, the half-life [1, 7] was 0.36 h, the bioavailability ([1]; male, Sprague-Dawley, plasma, PO 10 mg/kg vs IV 3 mg/kg) was 55.5% and the AUC(0-inf) [1, 7] was 13100 ng·h/mL. The MRT inf [1, 7] was 6.23 h, the “Cl_pred (L/kg)” value ([1]; IV 3 mg/kg) was 0.47 and the “Vz_pred” value ([1]; IV 3 mg/kg) was 3.28 L/kg. For the same compound, the “Cl_pred (L/kg)” value ([1]; PO 10 mg/kg) was 0.77, the “Vz_pred” value ([1]; PO 10 mg/kg) was 10.05 L/kg and the IC50 [2] was under 0.17 nM. For the same compound, the IC50 [3] was under 0.17 nM, the IC50 [4] was under 0.17 nM and the IC50 [5] was 5.13 nM.
